What all share (format): biochemical
In test [1] the target is ROCK1 (Homo sapiens, UniProt Q13464). In words: In vitro inhibitory activity assay ROCK1 (ADP-Glo). Conditions: ATP 200 μM, Cheng-Prusoff; read-out: ROCK 1 (Ki, range of activity). The method, then:
(§1) In Vitro Inhibitory Activity Assay Description ROCK1 and ROCK2
(§2) The effectiveness of compounds of the present invention to inhibit Rho kinase activity can be determined in a 10 μl assay containing 40 mM Tris pH7.5, 20 mM MgCl2 0.1 mg/mL BSA, 50 μM DTT and 2.5 μM peptide substrate (Myelin Basic Protein) using an ADP-Glo kit (Promega). Compounds were dissolved in DMSO such that the final concentration of DMSO was 1% in the assay. All reactions/incubations are performed at 25° C. Compound (2 ul) and either Rho kinase 1 or 2 (4 μl) were mixed and incubated for 30 mins. Reactions were initiated by addition of ATP (4 μl) such that the final concentration of ATP in the assay was 200 μM. After a 1 hour incubation 10 μl of ADP-Glo Reagent was added and after a further 1 hour incubation 20 ul of Kinase Detection Buffer was added and the mixture incubated for a further 45 minutes. The luminescent signal was measured on a luminometer. […] Compounds were tested in dose-response format and the inhibition of kinase activity was calculated at each concentration of compound. To determine the IC50 (concentration of compound required to inhibit 50% of the enzyme activity) data were fit to a plot of % inhibition vs Log 10 compound concentration using a sigmoidal fit with a variable slope and fixing the maximum to 100% and the minimum to 0%. To determine the Ki values the Cheng-Prusoff equation was utilized (Ki=IC50/(1+[S]/Km).

In test [2] the target is ROCK2 (Homo sapiens, UniProt O75116). In words: In vitro inhibitory activity assay ROCK2 (ADP-Glo). Conditions: ATP 200 μM, Cheng-Prusoff; read-out: ROCK2 (Ki, range of activity). How it is done: as §1, §2
The target in test [3] is PKA (Homo sapiens, UniProt P17612). Briefly: In vitro inhibitory activity assay for PKA (ADP-Glo), reported as selectivity ratio vs ROCK2. Conditions: Ki value for PKA divided by Ki value of ROCK2. How it is done:
In Vitro Inhibitory Activity Assay Description for PKA
The effectiveness of compounds of the present invention to inhibit PKA activity can be determined in a 10 μl assay containing 40 mM Tris pH7.5, 20 mM MgCl2 0.1 mg/ml BSA, 50 μM DTT and 260 μM peptide substrate (kemptide) using an ADP-Glo kit (Promega). Compounds were dissolved in DMSO such that the final concentration of DMSO was 1% in the assay. All reactions/incubations are performed at 25° C. Compound and PKA enzyme (6 μl) were mixed and incubated for 30 mins. Reactions were initiated by addition of ATP (4 μl) such that the final concentration of ATP in the assay was 10 μM. After a 30 minute incubation 10p of ADP-Glo Reagent was added and after a further 1 hour incubation 20 μl of Kinase Detection Buffer was added and the mixture incubated for a further 45 minutes. The luminescent signal was measured on a luminometer. […] Compounds were tested in dose-response format and the inhibition of kinase activity was calculated at each concentration of compound. To determine the IC50 (concentration of compound required to inhibit 50% of the enzyme activity) data were fit to a plot of % inhibition vs Log10 compound concentration using a sigmoidal fit with a variable slope and fixing the maximum to 100% and the minimum to 0%. To determine the Ki values the Cheng-Prusoff equation was utilized (Ki=IC50/(1+[S]/Km).
In vitro inhibitory activities for PKA were reported as selectivity ratio vs. ROCK-2.

The values below come from patent US20240092790A1, “DIHYDROFUROPYRIDINE DERIVATIVES AS RHO- KINASE INHIBITORS” (CHIESI FARMACEUTICI S.P.A., priority 2020, published 2024).

Sequence of ROCK2 (O75116 whole entry): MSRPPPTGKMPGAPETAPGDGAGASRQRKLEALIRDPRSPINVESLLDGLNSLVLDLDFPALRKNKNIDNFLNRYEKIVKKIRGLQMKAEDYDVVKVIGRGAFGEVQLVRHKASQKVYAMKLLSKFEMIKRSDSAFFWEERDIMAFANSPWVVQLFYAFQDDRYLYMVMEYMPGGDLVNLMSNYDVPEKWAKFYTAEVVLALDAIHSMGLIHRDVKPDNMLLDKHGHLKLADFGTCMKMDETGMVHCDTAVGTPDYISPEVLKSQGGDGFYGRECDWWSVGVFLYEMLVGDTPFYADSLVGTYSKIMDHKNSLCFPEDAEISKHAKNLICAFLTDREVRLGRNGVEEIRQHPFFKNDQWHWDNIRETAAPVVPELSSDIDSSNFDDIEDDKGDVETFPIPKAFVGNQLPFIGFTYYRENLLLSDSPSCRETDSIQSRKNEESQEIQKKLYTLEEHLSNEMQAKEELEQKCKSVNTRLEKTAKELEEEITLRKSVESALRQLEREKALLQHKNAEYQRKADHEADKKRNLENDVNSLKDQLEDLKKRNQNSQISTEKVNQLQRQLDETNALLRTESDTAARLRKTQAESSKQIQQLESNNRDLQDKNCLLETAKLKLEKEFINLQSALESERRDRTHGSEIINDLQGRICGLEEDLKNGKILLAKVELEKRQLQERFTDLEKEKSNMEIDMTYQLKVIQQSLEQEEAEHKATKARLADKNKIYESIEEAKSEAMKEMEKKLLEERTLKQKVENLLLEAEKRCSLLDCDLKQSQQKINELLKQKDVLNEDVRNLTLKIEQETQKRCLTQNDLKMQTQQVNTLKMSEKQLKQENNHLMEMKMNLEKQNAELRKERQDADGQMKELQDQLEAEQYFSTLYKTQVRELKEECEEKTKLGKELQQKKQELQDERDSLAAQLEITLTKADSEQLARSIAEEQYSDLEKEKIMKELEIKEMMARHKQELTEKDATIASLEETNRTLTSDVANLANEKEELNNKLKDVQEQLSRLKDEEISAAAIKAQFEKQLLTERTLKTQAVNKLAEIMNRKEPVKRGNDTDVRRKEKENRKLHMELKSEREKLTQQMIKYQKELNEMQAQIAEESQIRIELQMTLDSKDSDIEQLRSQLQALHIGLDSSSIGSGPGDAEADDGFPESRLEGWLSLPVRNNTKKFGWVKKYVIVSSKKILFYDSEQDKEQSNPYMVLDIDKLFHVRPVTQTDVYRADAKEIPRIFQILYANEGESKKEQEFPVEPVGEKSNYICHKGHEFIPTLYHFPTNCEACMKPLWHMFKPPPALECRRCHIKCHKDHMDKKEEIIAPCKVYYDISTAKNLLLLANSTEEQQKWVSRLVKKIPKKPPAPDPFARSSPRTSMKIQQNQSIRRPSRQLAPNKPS
Sequence of ROCK1 (Q13464 whole entry): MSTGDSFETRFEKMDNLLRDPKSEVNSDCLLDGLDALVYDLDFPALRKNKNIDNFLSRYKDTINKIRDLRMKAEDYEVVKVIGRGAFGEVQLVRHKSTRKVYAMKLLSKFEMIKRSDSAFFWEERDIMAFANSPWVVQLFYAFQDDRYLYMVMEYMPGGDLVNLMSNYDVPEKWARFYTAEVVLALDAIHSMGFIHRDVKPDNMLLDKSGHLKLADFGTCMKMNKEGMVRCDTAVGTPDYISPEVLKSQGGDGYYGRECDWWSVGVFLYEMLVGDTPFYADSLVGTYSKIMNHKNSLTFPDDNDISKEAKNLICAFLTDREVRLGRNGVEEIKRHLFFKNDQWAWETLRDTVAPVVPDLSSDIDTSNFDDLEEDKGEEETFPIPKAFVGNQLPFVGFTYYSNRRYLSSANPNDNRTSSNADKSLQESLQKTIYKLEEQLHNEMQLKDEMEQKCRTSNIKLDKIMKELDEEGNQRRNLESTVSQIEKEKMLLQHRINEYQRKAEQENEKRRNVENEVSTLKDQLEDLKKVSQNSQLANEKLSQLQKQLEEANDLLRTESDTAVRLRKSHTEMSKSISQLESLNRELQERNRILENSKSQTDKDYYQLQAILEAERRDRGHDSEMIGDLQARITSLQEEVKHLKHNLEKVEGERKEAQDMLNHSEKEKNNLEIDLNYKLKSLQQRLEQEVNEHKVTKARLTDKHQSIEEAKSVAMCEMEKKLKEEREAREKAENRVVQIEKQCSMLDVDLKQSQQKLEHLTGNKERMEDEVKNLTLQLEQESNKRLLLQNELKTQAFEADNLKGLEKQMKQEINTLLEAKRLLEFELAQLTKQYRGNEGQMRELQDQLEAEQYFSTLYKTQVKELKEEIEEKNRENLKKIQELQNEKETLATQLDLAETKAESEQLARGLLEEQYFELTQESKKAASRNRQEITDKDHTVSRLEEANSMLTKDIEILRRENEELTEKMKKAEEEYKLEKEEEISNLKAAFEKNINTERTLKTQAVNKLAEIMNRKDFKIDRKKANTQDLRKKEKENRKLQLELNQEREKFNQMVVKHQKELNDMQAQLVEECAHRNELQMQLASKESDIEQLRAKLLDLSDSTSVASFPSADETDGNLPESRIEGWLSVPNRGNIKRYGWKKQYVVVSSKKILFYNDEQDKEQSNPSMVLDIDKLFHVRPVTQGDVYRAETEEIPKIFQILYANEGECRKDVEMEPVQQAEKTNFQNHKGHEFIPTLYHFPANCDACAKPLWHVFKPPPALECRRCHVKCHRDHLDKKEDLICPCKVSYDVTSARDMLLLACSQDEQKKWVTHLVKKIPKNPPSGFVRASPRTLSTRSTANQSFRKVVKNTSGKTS

In the case of `CNC(=O)c1cccc(CNc2ncc(-c3ccnc(N)n3)c3c2CCO3)c1F` [Example 54, 3-(((7-(2-Aminopyrimidin-4-yl)-2,3-dihydrofuro[3,2-c]pyridin-4-yl)amino)methyl)-2-fluoro-N-methylbenzamide], the figures for the Ki in test [1] and in test [2] were above 30 nM and 3 to 30 nM, respectively. Besides, the “Ratio (PKA/ROCK2)” value in test [3] is on record as “*** (ratio≥10)”.

`Nc1nccc(-c2cnc(NCc3cccc(C(=O)NCCCF)c3)c3c2OCC3)n1` [Example 29, 3-(((7-(2-Aminopyrimidin-4-yl)-2,3-dihydrofuro[3,2-c]pyridin-4-yl)amino)methyl)-N-(3-fluoropropyl)benzamide]: the Ki in test [1] and in test [2] was at most 3 nM in each case. Besides, the “Ratio (PKA/ROCK2)” value in test [3] was “*** (ratio≥10)”.

As for `Nc1nccc(-c2cnc(NCc3cccc(C(=O)NCCC(F)F)c3)c3c2OCC3)n1` [Example 50, 3-(((7-(2-Aminopyrimidin-4-yl)-2,3-dihydrofuro[3,2-c]pyridin-4-yl)amino)methyl)-N-(3,3-difluoropropyl)benzamide], the Ki in test [1] and in test [2] was at most 3 nM throughout. The “Ratio (PKA/ROCK2)” value in test [3] is “*** (ratio≥10)”.

In the case of `CC(C)(C)N1CC(CNC(=O)c2cccc(CNc3ncc(-c4ccnc(N)n4)c4c3CCO4)c2)CC1=O` (single isomer, unassigned) [Example 32, 3-(((7-(2-Aminopyrimidin-4-yl)-2,3-dihydrofuro[3,2-c]pyridin-4-yl)amino)methyl)-N-((1-(tert-butyl)-5-oxopyrrolidin-3-yl)methyl)benzamide], the Ki in test [1] and in test [2] was at most 3 nM in each case. Besides, the “Ratio (PKA/ROCK2)” value in test [3] was “*** (ratio≥10)”.

Regarding `Nc1nccc(-c2cnc(NCc3cccc(C(=O)NC[C@H]4CCCO4)c3)c3c2OCC3)n1` [Example 42, (R)-3-(((7-(2-Aminopyrimidin-4-yl)-2,3-dihydrofuro[3,2-c]pyridin-4-yl)amino)methyl)-N-((tetrahydrofuran-2-yl)methyl)benzamide], the Ki in test [1] and in test [2] was at most 3 nM in each case. The “Ratio (PKA/ROCK2)” value in test [3] is reported as “*** (ratio≥10)”.

With `Nc1nccc(-c2cnc(NCc3cccc(C(=O)NCCN4CCCCC4)c3)c3c2OCC3)n1` [Example 5, 3-(((7-(2-Aminopyrimidin-4-yl)-2,3-dihydrofuro[3,2-c]pyridin-4-yl)amino)methyl)-N-(2-(piperidin-1-yl)ethyl)benzamide], the Ki in test [1] and in test [2] was at most 3 nM in each case. Besides, the “Ratio (PKA/ROCK2)” value in test [3] is “*** (ratio≥10)”.

In the case of `CC(C)OCCCNC(=O)c1cccc(CNc2ncc(-c3ccnc(N)n3)c3c2CCO3)c1` [Example 15, 3-(((7-(2-Aminopyrimidin-4-yl)-2,3-dihydrofuro[3,2-c]pyridin-4-yl)amino)methyl)-N-(3-isopropoxypropyl)benzamide], the Ki in test [1] and in test [2] was at most 3 nM in each case. Also, the “Ratio (PKA/ROCK2)” value in test [3] is “*** (ratio≥10)”.

For the compound `Nc1nccc(-c2cnc(NCc3cccc(C(=O)N[C@@H]4C[C@@H]4F)c3)c3c2OCC3)n1` [Example 37, 3-(((7-(2-Aminopyrimidin-4-yl)-2,3-dihydrofuro[3,2-c]pyridin-4-yl)amino)methyl)-N-((1R,2S)-2-fluorocyclopropyl)benzamide], the Ki in test [1] and in test [2] was at most 3 nM throughout. Moreover, the “Ratio (PKA/ROCK2)” value in test [3] is “*** (ratio≥10)”.

Consider `CC(C)(O)CNC(=O)c1cccc(CNc2ncc(-c3ccnc(N)n3)c3c2CCO3)c1` [Example 17, 3-(((7-(2-Aminopyrimidin-4-yl)-2,3-dihydrofuro[3,2-c]pyridin-4-yl)amino)methyl)-N-(2-hydroxy-2-methylpropyl)benzamide], for which the Ki in test [1] and in test [2] was at most 3 nM in each case. For the same compound, the “Ratio (PKA/ROCK2)” value in test [3] is listed as “*** (ratio≥10)”.
